One may read the IC50 as the midpoint of a concentration-inhibition curve.

Test [1] deals with T1, PSEN1 L172A–APH1A γ-secretase complex (Homo sapiens, UniProt P49768+Q92542+Q96BI3+Q9NZ42, L172A).
T1 construct: expressed in transfected cells; host or cells: Psen1/2 double KO/Aph1ABC triple KO MEFs, pools without clonal selection
The experiment in a line: Aβ40 secretion, MEF cell pool restored with PSEN1 L172A–APH1A. As to conditions: PSEN1 L172A (TM3)–APH1A cell pool; N = 3 to 4; mean (95% CI); decimal comma. It counts as cell-based. How it is done: We turned to experimental site–directed mutagenesis and selected a series of amino acids (Fig. 3) in the entrance channel for mutation to alanine. […] More importantly, they were all enzymatically active as shown by the secretion of Aβ40 in the supernatants of the cell cultures (Fig. 3B).
(§1) Conditional Psen1/2 double KO mice were crossed with conditional Aph1ABC triple KO mice ([29], [52], [58], [59]). At embryonic day 7.5, embryos were dissected and dissociated, and cells were plated in the presence of Dulbecco’s modified Eagle’s medium (DMEM)/F12 50% fetal calf serum (FCS) (Invitrogen). Primary MEFs were immortalized by transduction with LargeT antigen. Psen1/2 double KO/Aph1ABC triple KO MEFs were generated by transduction with a Cre-GFP–expressing adenoviral vector, and GFP-positive MEFs were sorted by fluorescence-activated cell sorting analysis. Psen1/2 Aph1ABC-deficient MEFs were maintained in DMEM/f12 10% FCS. To rescue γ-secretase expression, Psen1/2 double KO/Aph1ABC triple KO MEFs were transduced using Murine Stem Cell Virus retroviral vector system (pMSCV) viral vectors (Clontech) containing the human coding sequences of the different PSEN and APH1 homologs and the zeocin selection marker. An Internal Ribosome Entry Site sequence was cloned between the coding sequences for PSEN and APH1 to ensure co-expression of both proteins. Stable transfected cell lines were selected using 500-μg/ml zeocin (Invitrogen). Four different combinations were made: PSEN1 and APH1AL, PSEN1 and APH1B, PSEN2 and APH1AL, and PSEN2 and APH1B. These cell lines were transduced with pMSCV viral vectors (Clontech) expressing APP-C99-GFP-puromycin. After puromycin selection (5 μg/ml), GFP-positive cells were selected through FACS sorting. For the alanine mutagenesis experiment, pMSCV PSEN1-APH1A viral vectors were generated by using a long PCR-based QuikChange strategy (Stratagene). Stable cell lines without clonal selection were generated for each mutant as described above. All cell lines were regularly tested for the absence of mycoplasma and used for maximum 20 passages in culture.
(§2) The number of plated cells and incubation times were determined in respect to linearity of Aβ peptide secretion, the dynamic range of Aβ peptide quantification in the medium, and sensitivity to dimethylsulfoxide (DMSO). […] MEF cells were plated in DMEM F12 supplemented with 10% FCS at 10,000 cells per well in 96-well clear bottom plates in the late afternoon and cultured for 16 h at 37 °C, 5% CO2. In the morning of the second day, the medium was replaced with 60 μl of DMEM/F12 supplemented with 2% FCS, and GSI or DMSO (controls) were added. Compounds were tested in serial dilutions with concentrations ranging from […] to 0.1 nM with 3-fold changes. The final concentration of DMSO in all wells was 0.2%. Plates were put in the incubator again at 37 °C, 5% CO2. After 8 h, the culture media were collected, and 30 μl was used to measure Aβ40 peptides. The cell viability was assessed using the CellTiter-Glo Luminescent assay (Promega) that measures ATP production. All screens were performed at one site, and reported IC50 values throughout the manuscript are from this site (Beerse) unless otherwise indicated. We however measured five compounds at the Leuven site and noticed that absolute IC50 values were different (Fig. S2). The main goal of the current work is to explore the basis for inhibitor selectivity for different γ-secretases, and selectivity was consistent in the assays at the two sites (Fig. S2).
Standard 96-well SECTOR plates (MSD) were coated with 1.5 μg/ml anti-Aβ JRFcAβ40/28 capture antibody in a final volume of 50 μl of PBS 0.05% Tween 20. After overnight incubation at 4 °C, the plates were five times rinsed with PBS 0.05% Tween 20 and blocked with 150 μl per well of casein buffer (PBS with 1% casein, pH 7.4) for 4 h at room temperature. Standards (synthetic human Aβ 1–40) were diluted in culture media. […]

Test [2] deals with T2, PSEN1-APH1B γ-secretase complex (Homo sapiens, UniProt P49768).
T2 construct: expressed in transfected cells; host or cells: Psen1/2 double KO/Aph1ABC triple KO MEFs, pMSCV retroviral PSEN-IRES-APH1
The experiment in a line: Aβ40 secretion by MEF cell line expressing only PSEN1-APH1B γ-secretase (APP-C99-GFP reporter). It counts as cell-based. As to conditions: 8 h, Beerse site unless otherwise indicated, read-out: IC50, Aβ40 peptides.
Description: Mouse embryonic fibroblast (MEF) cells deficient for the Psen and Aph1 genes (Psen1/2^−/−, Aph1ABC^−/−) were reconstituted with human PSEN1 or PSEN2 and with human APH1A or APH1B to generate four independent cell lines, each constitutively expressing exclusively one type of γ-secretase complex (Fig. S1A) ([19]). A human APP-C99-GFP reporter was introduced to enable the measurement of Aβ peptides in the conditioned media of the cells to monitor γ-secretase activity. The assay was established in a 96-well format.
as §1
as §2, with “indicated.” for “indicated. We however measured five compounds at the Leuven site and noticed that absolute IC50 values were different (Fig. S2). The main goal of the current work is to explore the basis for inhibitor selectivity for different γ-secretases, and selectivity was consistent in the assays at the two sites (Fig. S2).”
Standard 96-well SECTOR plates (MSD) were coated with 1.5 μg/ml anti-Aβ JRFcAβ40/28 capture antibody in a final volume of 50 μl of PBS 0.05% Tween 20.

With `O=S(=O)(c1ccc(Cl)cc1)N1[C@H]2CC[C@@H]([C@H]1c1ccc(C(F)(F)F)cc1)[C@@H](O)C2` [(+)-9b], the IC50 in test [1] was 0.0094 µM; in test [2], 6 nM.

These data come from publication PMC10318456, “Selective inhibitors of the PSEN1–gamma-secretase complex” (The Journal of Biological Chemistry, 2023).
